Values after ≈ are worked out from the molar mass of the structure shown.
Assay: Udenafil solubility test at different pHs
Type: physicochemical
Details: thermodynamic from solid; in purified water (Comparative Example 1)
Procedure: A pH adjusting agent was added to 5 ml of purified water, and the mixture was stirred for 10 minutes, and then udenafil was added thereto, thus preparing the solutions shown in Table 1 above.
Detector: UV detector (292 nm)
Column temperature: 30° C.
Mobile phase: 2.72 g of KH2PO4 dissolved in 1 L of purified water (A); acetonitrile (B); A:B=700:300

solubility at 2 h: ~120 µg/mL (≈ 232 µM)
Structure (SMILES): CCCOc1ccc(S(=O)(=O)NCCC2CCCN2C)cc1-c1nc2c(CCC)nn(C)c2c(=O)[nH]1 (stereo not shown) [Udenafil, 5-[2-propyloxy-5-(1-methyl-2-pyrrolidinyleneamidosulfonyl)phenyl]-1-methyl-1-propyl-1,6-dihydro-7H-pyrazolo(4,3-d)pyrimidin-7-one]
